Assay [1] concerns the target T1, rat N-type channels (α1B+α2δ+β1b subunits) (Rattus norvegicus, UniProt Q02294).
T1 construct: expressed in transfected cells
Put plainly: Whole cell patch clamp, N-type calcium channel block in HEK 293 cells. The assay is classed as cell-based. To be noted: for specificity for N-type channels as compared to L and P/Q-type: FIGS. 2, 3 and 4. As to the method:
(§1) Antagonist activity was measured using whole cell patch recordings on human embryonic kidney cells either stably or transiently expressing rat N-type channels (α1B+[…]+β1b subunits) with 5 mM barium as a charge carrier. Alternatively, cells either stably or transiently expressing rat L-type channels (α1C+α2δ+β1b cDNA subunits) and P/Q-type channels (α1A+α2δ+β1b cDNA subunits)
HEK 293 cells were transfected by a standard calcium-phosphate-DNA coprecipitation method using the rat α1B+β1b+α2δ N-type calcium channel subunits in a vertebrate expression vector (for example, see Current Protocols in Molecular Biology).
(§2) After an incubation period of from 24 to 72 hrs the culture medium was removed and replaced with external recording solution (see below). Whole cell patch clamp experiments were performed using an Axopatch 200B amplifier (Axon Instruments, Burlingame, Calif.) linked to an IBM compatible personal computer equipped with pCLAMP software. […] Current data shown were elicited by a train of 100 ms test pulses at 0.066 Hz from −100 mV and/or −80 mV to various potentials (min. −20 mV, max. +30 mV). Drugs were perfused directly into the vicinity of the cells using a microperfusion system.
Normalized dose-response curves were fit (Sigmaplot 4.0, SPSS Inc., Chicago, Ill.) by the Hill equation to determine IC50 values. Steady-state inactivation curves were plotted as the normalized test pulse amplitude following 5 s inactivating prepulses at +10 mV increments.
Alternatively, N-type calcium channels (α1B+α2δ+β1b cDNA subunits), L-type channels (α1C+α2δ+β1b cDNA subunits) and P/Q-type channels (α1A+α2δ+β1b cDNA subunits) were transiently expressed in HEK 293 cells. Briefly, cells were cultured in Dulbecco's modified eagle medium (DMEM) supplemented with 10% fetal bovine serum, 200 U/ml penicillin and 0.2 mg/ml streptomycin at 37° C. with 5% CO2. […] At 12 hours the medium was replaced and the cells transiently transfected using a standard calcium phosphate protocol and the appropriate calcium channel cDNAs. Fresh DMEM was supplied and the cells transferred to 28° C./5% CO2.
Whole cell patch clamp experiments were performed using an Axopatch 200B amplifier (Axon Instruments, Burlingame, Calif.) linked to a personal computer equipped with pCLAMP software. […] Currents were typically elicited from a holding potential of −80 mV to +10 mV using Clampex software (Axon Instruments). […] The compounds were then applied during the low frequency pulse trains for two to three minutes to assess tonic block, and subsequently the pulse frequency was increased to 0.2 Hz to assess frequency dependent block. Data were analyzed using Clampfit (Axon Instruments) and SigmaPlot 4.0 (Jandel Scientific).
Background: In patch-clamp work, channel activity is measured electrically.

Assay [2] addresses T2, P/Q-type channels (α1A+α2δ+β1b cDNA subunits) (Rattus norvegicus, UniProt P54282).
T2 construct: expressed in transfected cells
Nature of the assay: Whole cell patch clamp, P/Q-type calcium channel block in HEK 293 cells. The conditions noted are these: Tested at 0.1 Hz, 5 mM Ba2+. The format is cell-based. How it is done: as §1, §2
(§3) Normalized dose-response curves were fit (Sigmaplot 4.0, SPSS Inc., Chicago, Ill.) by the Hill equation to determine IC50 values. […]
(§4) Whole cell patch clamp experiments were performed using an Axopatch 200B amplifier (Axon Instruments, Burlingame, Calif.) linked to a personal computer equipped with pCLAMP software. […] Data were analyzed using Clampfit (Axon Instruments) and SigmaPlot 4.0 (Jandel Scientific).

Assay [3] has as its target T3, rat L-type channels (α1C+α2δ+β1b cDNA subunits) (Rattus norvegicus, UniProt P22002).
T3 construct: expressed in transfected cells
Nature of the assay: Whole cell patch clamp, L-type calcium channel block in HEK 293 cells. The conditions noted are these: Tested at 0.1 Hz, 5 mM Ba2+. The assay is classed as cell-based. As to the method:
as §1, §2, §3, §4

Assay [4] deals with T4, human α1G subunits (T-type channels) (Homo sapiens, UniProt O43497).
T4 construct: expressed in transfected cells
Put plainly: Block of α1G T-type channels, patch clamp in HEK cell lines. The assay is classed as cell-based. As to the method:
Standard patch-clamp techniques were employed to identify blockers of T-type currents. Briefly, previously described HEK cell lines stably expressing human α1G subunits were used for all the recordings (passage #: 4-20, 37° C., 5% CO2). To obtain T-type currents, plastic dishes containing semi-confluent cells were positioned on the stage of a ZEISS AXIOVERT S100 microscope after replacing the culture medium with external solution (see below). Whole-cell patches were obtained using pipettes (borosilicate glass with filament, O.D.: 1.5 mm, I.D.: 0.86 mm, 10 cm length), fabricated on a SUTTER P-97 puller with resistance values of ˜5 MΩ (see below for internal medium).
Test compounds were dissolved in external solution, 0.1-0.01% DMSO. After ˜10 min rest, they were applied by gravity close to the cell using a WPI microfil tubing. The “non-inactivating” pre-pulse was used to examine the resting block of a compound. The “inactivating” protocol was employed to study voltage-dependent block. However, the initial data were obtained using the non-inactivating protocol.

Assay [5] addresses T1, rat N-type channels (α1B+α2δ+β1b subunits). Put plainly: Whole cell patch clamp, N-type calcium channel block in HEK 293 cells. The format is cell-based. To be noted: Tested at 0.1 Hz, 5 mM Ba2+.
The test system of another assay is rat formalin model. Put plainly: Formalin-induced pain model. The assay is classed as in vivo. To be noted: 30 mg/kg IP, saline control=100%. How it is done:
The effects of intrathecally delivered compounds of the invention on the rat formalin model were measured. The compounds were reconstituted to stock solutions of approximately 10 mg/ml in propylene glycol.
The following study groups were used, with test compound, vehicle control (propylene glycol) and saline delivered intraperitoneally (IP):
Prior to initiation of drug delivery baseline behavioral and testing data were taken.
On the morning of testing, a small metal band (0.5 g) was loosely placed around the right hind paw. The rat was placed in a cylindrical Plexiglas chamber for adaptation a minimum of 30 minutes. Test compound or vehicle control was administered 10 minutes prior to formalin injection (50 μl of 5% formalin) into the dorsal surface of the right hindpaw of the rat. The animal was then placed into the chamber of the automated formalin apparatus where movement of the formalin injected paw was monitored and the number of paw flinches tallied by minute over the next 60 minutes.

[6] abbreviates: 0.067 Hz, read-out: IC50 for N-type Calcium Channel Block (0.067 Hz).
Setting [7] is: 0.2 Hz, read-out: IC50 for N-type Calcium Channel Block (0.2 Hz).
Where [8] appears, read: 80 mV, read-out: Block of α1G T-type Channels IC50, 80 mV.
Where [9] appears, read: 100 mV, non-inactivating protocol, read-out: Block of α1G T-type Channels IC50, 100 mV.

Like-named read-outs stand apart in the source and are kept apart here. Some results are limits rather than exact numbers.

The term IC50 denotes the concentration at which inhibition is half-maximal.

T4 sequence (O43497 whole entry): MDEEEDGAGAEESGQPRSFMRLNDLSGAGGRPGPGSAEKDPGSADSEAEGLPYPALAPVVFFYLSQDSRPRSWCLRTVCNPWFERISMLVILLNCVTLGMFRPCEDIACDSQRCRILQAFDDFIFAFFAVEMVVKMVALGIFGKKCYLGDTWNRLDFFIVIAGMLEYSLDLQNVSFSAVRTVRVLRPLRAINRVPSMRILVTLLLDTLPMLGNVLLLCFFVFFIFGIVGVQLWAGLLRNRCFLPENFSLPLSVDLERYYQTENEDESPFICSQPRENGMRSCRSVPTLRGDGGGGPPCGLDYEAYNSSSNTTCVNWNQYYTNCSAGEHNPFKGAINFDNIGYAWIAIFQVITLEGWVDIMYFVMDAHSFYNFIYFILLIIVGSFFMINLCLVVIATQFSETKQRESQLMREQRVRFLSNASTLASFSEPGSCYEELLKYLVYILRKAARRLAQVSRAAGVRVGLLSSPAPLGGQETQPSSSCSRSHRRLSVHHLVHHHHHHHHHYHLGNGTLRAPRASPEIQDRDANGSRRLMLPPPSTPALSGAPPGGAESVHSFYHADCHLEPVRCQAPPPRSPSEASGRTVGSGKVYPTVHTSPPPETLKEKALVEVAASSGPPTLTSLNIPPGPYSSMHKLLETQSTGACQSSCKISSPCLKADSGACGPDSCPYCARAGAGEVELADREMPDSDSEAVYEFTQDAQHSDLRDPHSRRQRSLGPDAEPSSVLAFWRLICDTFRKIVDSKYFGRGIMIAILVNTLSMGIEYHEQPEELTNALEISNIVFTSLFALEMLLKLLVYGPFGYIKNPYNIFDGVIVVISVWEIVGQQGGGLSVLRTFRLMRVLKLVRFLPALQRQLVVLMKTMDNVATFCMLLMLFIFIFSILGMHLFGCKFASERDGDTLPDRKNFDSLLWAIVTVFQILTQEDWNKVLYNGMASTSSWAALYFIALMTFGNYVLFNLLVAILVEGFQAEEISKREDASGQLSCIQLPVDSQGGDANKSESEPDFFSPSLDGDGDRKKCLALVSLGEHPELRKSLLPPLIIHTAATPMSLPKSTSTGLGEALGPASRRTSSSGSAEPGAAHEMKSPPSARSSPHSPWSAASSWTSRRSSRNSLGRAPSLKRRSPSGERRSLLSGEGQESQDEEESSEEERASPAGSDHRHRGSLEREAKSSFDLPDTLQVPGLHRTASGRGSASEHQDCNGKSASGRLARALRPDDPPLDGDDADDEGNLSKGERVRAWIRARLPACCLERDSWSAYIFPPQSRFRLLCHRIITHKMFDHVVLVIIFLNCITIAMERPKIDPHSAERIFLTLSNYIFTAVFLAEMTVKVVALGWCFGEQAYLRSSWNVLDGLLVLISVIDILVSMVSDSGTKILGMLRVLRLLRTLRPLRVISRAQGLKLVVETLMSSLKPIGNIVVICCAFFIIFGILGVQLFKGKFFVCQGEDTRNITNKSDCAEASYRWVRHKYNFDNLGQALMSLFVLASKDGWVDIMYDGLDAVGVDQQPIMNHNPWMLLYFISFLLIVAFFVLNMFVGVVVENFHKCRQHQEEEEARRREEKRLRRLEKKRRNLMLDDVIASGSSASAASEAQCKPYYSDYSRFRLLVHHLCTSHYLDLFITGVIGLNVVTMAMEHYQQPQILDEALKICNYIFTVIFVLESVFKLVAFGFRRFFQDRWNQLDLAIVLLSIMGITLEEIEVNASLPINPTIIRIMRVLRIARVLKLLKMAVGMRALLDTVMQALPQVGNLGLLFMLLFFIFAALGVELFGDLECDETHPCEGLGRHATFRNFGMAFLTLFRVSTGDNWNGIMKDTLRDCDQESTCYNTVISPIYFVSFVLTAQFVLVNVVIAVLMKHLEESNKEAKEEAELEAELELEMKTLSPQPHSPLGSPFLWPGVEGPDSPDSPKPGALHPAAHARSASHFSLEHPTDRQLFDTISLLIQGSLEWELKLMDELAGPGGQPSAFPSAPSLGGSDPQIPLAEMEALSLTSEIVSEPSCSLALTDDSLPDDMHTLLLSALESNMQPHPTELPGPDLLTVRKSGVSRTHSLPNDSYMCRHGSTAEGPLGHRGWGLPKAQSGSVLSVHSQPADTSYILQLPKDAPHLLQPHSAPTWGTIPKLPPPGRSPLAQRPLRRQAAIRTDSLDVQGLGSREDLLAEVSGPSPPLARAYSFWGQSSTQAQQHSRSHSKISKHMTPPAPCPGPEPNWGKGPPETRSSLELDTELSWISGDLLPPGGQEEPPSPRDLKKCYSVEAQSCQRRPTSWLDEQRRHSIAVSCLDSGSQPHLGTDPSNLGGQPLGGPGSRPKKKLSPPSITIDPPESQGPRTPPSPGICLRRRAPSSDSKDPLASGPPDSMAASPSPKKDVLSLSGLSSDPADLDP

For `CCOC(=O)C1CN(Cc2cc(OC)c(OC)c(OC)c2)CCN1CCCCCC(c1ccc(F)cc1)c1ccc(F)cc1` (stereo not shown) [Compound P36, 1-[6,6-bis-(4-fluoro-phenyl)-hexyl]-4-(3,4,5,-trimethoxy-benzyl)-piperazine-2-carboxylic acid ethyl ester], the 50% inhibitory concentration (IC50) was 240 nM in assay [1] (setting [6]); 130 nM in assay [1] (setting [7]); 920 nM in assay [2]; above 100000 nM in assay [3]; 47 nM in assay [4] (setting [8]); 202 nM in assay [4] (setting [9]). For the same compound, in assay [5], the IC50 was found to be 136 nM. Further, the “specificity for N-type channels as compared to L and P/Q-type” value in assay [1] is given as “selectively block N-type channels”.
Turning to `O=C(NCC(=O)N1CCN(CCCCCC(c2ccc(F)cc2)c2ccc(F)cc2)CC1)c1ccc(Cl)cc1` [Compound P83], the IC50 was determined as 386 nM in assay [1] (setting [6]), 192 nM in assay [1] (setting [7]), 59 nM in assay [4] (setting [8]) and 173 nM in assay [4] (setting [9]).
For `Cc1ccc(C(=O)NCC(=O)N2CCN(CCCCCC(c3ccc(F)cc3)c3ccc(F)cc3)CC2)cc1` [Compound P84], in that order: 511 nM, 295 nM, 149 nM and 370 nM.
For `COc1c(C(C)(C)C)cc(CN2CCN(CCCCCC(c3ccc(F)cc3)c3ccc(F)cc3)C(=O)C2)cc1C(C)(C)C` [Compound P56], in that order: 78 nM, 59 nM, 92 nM and 95 nM.
As for `COc1c(C(C)(C)C)cc(C(=O)N2CCN(C(=O)CCCCC(c3ccc(F)cc3)c3ccc(F)cc3)C[C@@H]2C)cc1C(C)(C)C` [Compound P104], the IC50 in assay [1] (setting [6]) stood at 60 nM; in assay [1] (setting [7]) it was 13 nM; in assay [2], 1660 nM; in assay [3] it was 144000 nM; in assay [4] (setting [8]) it was 270 nM; in assay [4] (setting [9]), 579 nM. Further, the IC50 in assay [5] was determined as 61 nM. Also, the “specificity for N-type channels as compared to L and P/Q-type” value in assay [1] was “selectively block N-type channels”. Moreover, the “Maximum Possible Effect±SEM, Phase I” value in the assay with rat formalin model (Phase I) was 79 ± 9%. For the same compound, the “Maximum Possible Effect±SEM, Phase II” value with rat formalin model (Phase II) turned out to be 61 ± 9%. In the assay on rat formalin model (Phase IIA), the “Maximum Possible Effect±SEM, Phase IIA” value is recorded as 50 ± 12%.

The values are drawn from US20040266784A1, “Calcium channel inhibitors comprising benzhydril spaced from piperazine” (priority 1998, published 2004).
